Where only a bound is given, the exact number is not on record here.

This assay has as its system MiaPaCa-2 cells. The experiment in a line: MiaPaCa-2 Cell proliferation assay in 3D culture (CCK8). It is filed as cell-based. The note with it: Homo sapiens, MIA PaCa-2, 120 h; 3D spheroid culture, 5 days with compound, CCK8 readout. The protocol:
MiaPaCa-2 Cell proliferation assay in 3D culture. To evaluate cell viability, MiaPaCa-2 cells in logarithmic growth phase were seeded at optimal density and grown in as spheroids. Cells were incubated for 24 hours prior to the addition of different concentrations of the compounds. Cells were cultured with the compounds for 5 days and the cell viability was assessed using CCK8. Briefly, 2500 cells were seeded in round bottom ultra-low attachment 96 well plates (coming) in growth media supplemented with 10% FBS and incubated at 37° C. for 24 hours. The compounds were dissolved in DMSO (Sigma) to obtain 10 mM stock solution. Then the compounds were serially diluted in 3-fold to ten concentrations; 5 μL of the dilution above was transferred to 95 uL culture media to obtain the 50× compound stock solution; 4 uL of the 50× compound above was then transferred to the wells containing cells with 196 μL of the culture medium to obtain the final 1× concentration. The final concentration of DMSO was 0.1%. Spheroid cells were incubated in compounds for 5 days. Then 20 μL WST-8 solution (DOJINDO, Cell Counting KIT-8) was added to each well. The plates were further incubated at 37° C. for 1.5 hours, and then absorbance at 450 nm was measured using a microplate reader. Each compound was tested in triplicate and the IC50 value was calculated using GraphPad Prism.
The IC50 values of for Compounds disclosed are listed in Table 2, A: ≤500 nM; B: >500 nM and ≤5 μM; C: >5 μM and ≤50 μM; and D: >50 μM.
As for `C[C@@H]1OCC2(CCN(c3cnc(Sc4ccnc(NC(=O)NS(=O)(=O)c5ccccc5)c4Cl)cn3)CC2)[C@@H]1N` [Example 6, N-((4-((5-((3S,4S)-4-amino-3-methyl-2-oxa-8-azaspiro[4.5]decan-8-yl)pyrazin-2-yl)thio)-3-chloropyridin-2-yl)carbamoyl)benzenesulfonamide], the IC50 is no more than 500 nM.

Regarding `Cc1nc(N2CCC(C)(CN)CC2)c(CO)nc1Sc1ccnc(NC(=O)NS(=O)(=O)c2ccccc2)c1Cl` [Example 9, N-((4-((5-(4-(aminomethyl)-4-methylpiperidin-1-yl)-6-(hydroxymethyl)-3-methylpyrazin-2-yl)thio)-3-chloropyridin-2-yl)carbamoyl)benzenesulfonamide], the IC50 was no more than 500 nM.

In the case of `C[C@@H]1OCC2(CCN(c3cnc(Sc4cccc(NC(=O)NS(=O)(=O)c5ccccc5F)c4Cl)cn3)CC2)[C@@H]1N` [Example 10, N-((3-((5-((3S,4S)-4-amino-3-methyl-2-oxa-8-azaspiro[4.5]decan-8-yl)pyrazin-2-yl)thio)-2-chlorophenyl)carbamoyl)-2-fluorobenzenesulfonamide], the IC50 was no more than 500 nM.

With `Cc1nc(N2CCC3(CC2)CO[C@@H](C)[C@H]3N)c(CO)nc1Sc1cccc(NC(=O)NS(=O)(=O)c2ccccc2)c1Cl` [Example 11, N-((3-((5-((3S,4S)-4-amino-3-methyl-2-oxa-8-azaspiro[4.5]decan-8-yl)-6-(hydroxymethyl)-3-methylpyrazin-2-yl)thio)-2-chlorophenyl)carbamoyl)benzenesulfonamide], the IC50 was no more than 500 nM.

With `C[C@@H]1OCC2(CCN(c3cnc(Sc4cccc(NS(=O)(=O)NC(=O)Nc5ccccc5)c4Cl)cn3)CC2)[C@@H]1N` [Example 12, ((3S,4S)-8-(5-((2-chloro-3-((N-(phenylcarbamoyl)sulfamoyl)amino)phenyl)thio)pyrazin-2-yl)-3-methyl-2-oxa-8-azaspiro[4.5]decan-4-yl)amine], the IC50 was no more than 500 nM.

In the case of `C[C@@H]1OCC2(CCN(c3cnc(Sc4cccc(NC(=O)NS(=O)(=O)N5CCCC5)c4Cl)cn3)CC2)[C@@H]1N` [Example 13, N-((3-((5-((3S,4S)-4-amino-3-methyl-2-oxa-8-azaspiro[4.5]decan-8-yl)pyrazin-2-yl)thio)-2-chlorophenyl)carbamoyl)pyrrolidine-1-sulfonamide], the IC50 was no more than 500 nM.

In the case of `N[C@@H]1c2ncccc2CC12CCN(c1cnc(Sc3ccnc(NC(=O)NS(=O)(=O)c4ccccc4)c3Cl)cn1)CC2` [Example 14, (S)—N-((4-((5-(7-amino-5,7-dihydrospiro[cyclopenta[b]pyridine-6,4′-piperidin]-1′-yl)pyrazin-2-yl)thio)-3-chloropyridin-2-yl)carbamoyl)benzenesulfonamide], the IC50 was 500 to 5000 nM.

`C[C@@H]1OCC2(CCN(c3ncc(Sc4ccnc(NC(=O)NS(=O)(=O)c5ccccc5)c4Cl)c4nncn34)CC2)[C@@H]1N` [Example 15, N-((4-((5-((3S,4S)-4-amino-3-methyl-2-oxa-8-azaspiro[4.5]decan-8-yl)[1,2,4]triazolo[4,3-c]pyrimidin-8-yl)thio)-3-chloropyridin-2-yl)carbamoyl)benzenesulfonamide]: the half-maximal inhibitory concentration (IC50) was 500 to 5000 nM.

On to `C[C@@H]1OCC2(CCN(c3cnc(Sc4cccc(NS(=O)(=O)NC(=O)N5CCCC5)c4Cl)cn3)CC2)[C@@H]1N` [Example 16, N—(N-(3-((5-((3S,4S)-4-amino-3-methyl-2-oxa-8-azaspiro[4.5]decan-8-yl)pyrazin-2-yl)thio)-2-chlorophenyl)sulfamoyl)pyrrolidine-1-carboxamide], for which the IC50 was no more than 500 nM.

On to `C[C@@H]1OCC2(CCN(c3cnc(Sc4cccc(S(=O)(=O)NC(=O)NC5CCCC5)c4Cl)cn3)CC2)[C@@H]1N` [Example 17, 3-((5-((3S,4S)-4-amino-3-methyl-2-oxa-8-azaspiro[4.5]decan-8-yl)pyrazin-2-yl)thio)-2-chloro-N-(cyclopentylcarbamoyl)benzenesulfonamide], for which the IC50 is no more than 500 nM.

Consider `CC1(CN)CCN(c2cnc(Sc3cccc(C(=O)NS(=O)(=O)C4CCCC4)c3Cl)c(N)n2)CC1` [Example 44, 3-((3-amino-5-(4-(aminomethyl)-4-methylpiperidin-1-yl)pyrazin-2-yl)thio)-2-chloro-N-(cyclopentylsulfonyl)benzamide], for which the IC50 was no more than 500 nM.

For `CC1(CN)CCN(c2cnc(Sc3cccc(NC(=O)NS(=O)(=O)c4ccccn4)c3Cl)c(N)n2)CC1` [Example 45, N-((3-((3-amino-5-(4-(aminomethyl)-4-methylpiperidin-1-yl)pyrazin-2-yl)thio)-2-chlorophenyl)carbamoyl)pyridine-2-sulfonamide], the IC50 is no more than 500 nM.

In the case of `CC1(CN)CCN(c2cnc(Sc3cccc(NC(=O)NS(=O)(=O)c4cccnc4)c3Cl)c(N)n2)CC1` [Example 46, N-((3-((3-amino-5-(4-(aminomethyl)-4-methylpiperidin-1-yl)pyrazin-2-yl)thio)-2-chlorophenyl)carbamoyl)pyridine-3-sulfonamide], the IC50 was no more than 500 nM.

Take `CC1(CN)CCN(c2cnc(Sc3cccc(NC(=O)NS(=O)(=O)c4ccccc4F)c3Cl)c(N)n2)CC1` [Example 47, N-((3-((3-amino-5-(4-(aminomethyl)-4-methylpiperidin-1-yl)pyrazin-2-yl)thio)-2-chlorophenyl)carbamoyl)-2-fluorobenzenesulfonamide]: the IC50 lay in the range of 500 to 5000 nM.

As to `CC1(CN)CCN(c2cnc(Sc3ccnc(NC(=O)NS(=O)(=O)c4ccccc4)c3Cl)cn2)CC1` [Example 48, N-((4-((5-(4-(aminomethyl)-4-methylpiperidin-1-yl)pyrazin-2-yl)thio)-3-chloropyridin-2-yl)carbamoyl)benzenesulfonamide], the IC50 was no more than 500 nM.

Consider `C[C@@H]1OCC2(CCN(c3cnc(Sc4cccc(NC(=O)NS(=O)(=O)c5ccccc5)c4Cl)cn3)CC2)[C@@H]1N` [Example 49, N-((3-((5-((3S,4S)-4-amino-3-methyl-2-oxa-8-azaspiro[4.5]decan-8-yl)pyrazin-2-yl)thio)-2-chlorophenyl)carbamoyl)benzenesulfonamide], for which the IC50 was no more than 500 nM.

On to `C[C@@H]1OCC2(CCN(c3cnc(Sc4ccnc(NC(=O)NS(=O)(=O)c5cccc(F)c5)c4Cl)cn3)CC2)[C@@H]1N` [Example 50, N-((4-((5-((3S,4S)-4-amino-3-methyl-2-oxa-8-azaspiro[4.5]decan-8-yl)pyrazin-2-yl)thio)-3-chloropyridin-2-yl)carbamoyl)-3-fluorobenzenesulfonamide], for which the IC50 was no more than 500 nM.

As for `C[C@@H]1OCC2(CCN(c3cnc(Sc4ccnc(NC(=O)NS(=O)(=O)c5cccnc5)c4Cl)cn3)CC2)[C@@H]1N` [Example 51, N-((4-((5-((3S,4S)-4-amino-3-methyl-2-oxa-8-azaspiro[4.5]decan-8-yl)pyrazin-2-yl)thio)-3-chloropyridin-2-yl)carbamoyl)pyridine-3-sulfonamide], the IC50 lay within 500 to 5000 nM.

For the compound `C[C@@H]1OCC2(CCN(c3cnc(Sc4ccnc(NC(=O)NS(=O)(=O)c5ccccc5F)c4Cl)cn3)CC2)[C@@H]1N` [Example 52, N-((4-((5-((3S,4S)-4-amino-3-methyl-2-oxa-8-azaspiro[4.5]decan-8-yl)pyrazin-2-yl)thio)-3-chloropyridin-2-yl)carbamoyl)-2-fluorobenzenesulfonamide], the IC50 is no more than 500 nM.

Take `C[C@@H]1OCC2(CCN(c3cnc(Sc4ccnc(NC(=O)NS(=O)(=O)c5ccc(F)cc5)c4Cl)cn3)CC2)[C@@H]1N` [Example 53, N-((4-((5-((3S,4S)-4-amino-3-methyl-2-oxa-8-azaspiro[4.5]decan-8-yl)pyrazin-2-yl)thio)-3-chloropyridin-2-yl)carbamoyl)-4-fluorobenzenesulfonamide]: the IC50 is no more than 500 nM.

Consider `COc1ccc(S(=O)(=O)NC(=O)Nc2nccc(Sc3cnc(N4CCC5(CC4)CO[C@@H](C)[C@H]5N)cn3)c2Cl)cn1` [Example 54, N-((4-((5-((3S,4S)-4-amino-3-methyl-2-oxa-8-azaspiro[4.5]decan-8-yl)pyrazin-2-yl)thio)-3-chloropyridin-2-yl)carbamoyl)-6-methoxypyridine-3-sulfonamide], for which the IC50 was no more than 500 nM.

Turning to `C[C@@H]1OCC2(CCN(c3cnc(Sc4ccnc(NC(=O)NS(=O)(=O)c5cnn(C)c5)c4Cl)cn3)CC2)[C@@H]1N` [Example 55, N-((4-((5-((3S,4S)-4-amino-3-methyl-2-oxa-8-azaspiro[4.5]decan-8-yl)pyrazin-2-yl)thio)-3-chloropyridin-2-yl)carbamoyl)-1-methyl-1H-pyrazole-4-sulfonamide], the IC50 is no more than 500 nM.

For the compound `C[C@@H]1OCC2(CCN(c3cnc(Sc4ccnc(NC(=O)NS(=O)(=O)c5ccccc5)c4F)cn3)CC2)[C@@H]1N` [Example 56, N-((4-((5-((3S,4S)-4-amino-3-methyl-2-oxa-8-azaspiro[4.5]decan-8-yl)pyrazin-2-yl)thio)-3-fluoropyridin-2-yl)carbamoyl)benzenesulfonamide], the IC50 was no more than 500 nM.

For the compound `C[C@@H]1OCC2(CCN(c3cnc(Sc4ccnc(NC(=O)NS(=O)(=O)C5CC5)c4Cl)cn3)CC2)[C@@H]1N` [Example 57, N-((4-((5-((3S,4S)-4-amino-3-methyl-2-oxa-8-azaspiro[4.5]decan-8-yl)pyrazin-2-yl)thio)-3-chloropyridin-2-yl)carbamoyl)cyclopropanesulfonamide], the IC50 was no more than 500 nM.

The values above are taken from US20250109118A1, “HETEROCYCLIC COMPOUNDS AS SHP2 INHIBITORS, COMPOSITIONS COMPRISING THE HETEROCYCLIC COMPOUND, AND METHODS OF USE THEREOF” (JS INNOMED HOLDINGS LTD., priority 2021, published 2025).
